Results on three compounds are retold here after patent publication EP0072027A1, “Antiviral compounds” (THE WELLCOME FOUNDATION LIMITED, priority 1981, dated 1983).

By solubility is commonly meant how much of the substance goes into solution per volume. A higher solubility goes with a readily soluble substance.

≈ marks a conversion by molar mass, not a printed value.

Series [1] has as its target adenosine deaminase (Homo sapiens, UniProt P00813). The note with it: Tetrahedron Letters, 21, 1980, 327-330; cited from earlier work.
Series [2] deals with herpes simplex virus type 1. Kind of series: Comparative in vivo activity against herpetic encephalitis in mice (Example 18). Also noted: species or system CD.1 mice. The settings on record: for Mean reciprocal survival time: 100 mg/kg/dose twice daily for 4½ days, 300 LD50. As for the experimental part: CD.1 mice weighing 16 - 20 gm were obtained from Charles River, Manston, Kent, U.K. The animals were housed in groups of approximately 10 and were given food and water ad lib.
The compounds namely acyclovir, 134U, 759U and 457U, were prepared as suspensions or solutions in sterile water at a concentration of 20 mg/ml prior to each experiment, and were stored at 4°C during the dosing period.
The ICI strain of herpes simplex virus type 1 was used for all experiments at a concentration of 300 LD50 (10^5 pfu)/ml). Dilutions from virus stocks ([…]) were prepared in PBS 'A'.
The test procedure is analoguous to that described in Example 13.
Three experiments were performed, in which three routes of compound administration were examined: i) subcutaneous, ii) oral and iii) intraperitoneal. […]

Series [3] concerns EHV-1 Pneumabort vaccine strain. Kind of series: Comparative in vivo activity against equine rhinopneumonitis virus in hamsters, medicated drinking water (Example 15). The settings on record: for Cumulative mortality (out of 15) on day: water conc. 0.075 mg/ml, average intake 6.6-6.8 mg/kg/day. Also noted: species or system Syrian hamsters. The procedure:
50 male WO/CR Syrian hamsters were caged randomly in 10 groups of 5, with water and food (seed mix) ad lib. Hamsters were weighed on Days -3, 0, 4, and/or- at death/sacrifice. Water consumption was recorded over Days -3 to 0 to 4.
EHV-1 Pneumabort vaccine strain stored as a 10^-1 dilution, was further diluted 10^-1 in PBS for infection. On Day 0, hamsters in Groups 1-9 received 0.2 ml virus inoculum s/c in the left flank equivalent to about 2 x 10^5 PFU (plaque-forming units).
457U and 759U were dissolved in drinking water at 0.075 mg/ml. Assuming an average daily intake of […], this would result in a daily dose of around 10 mg/kg. Medicated water was provided from approximately 5 hours pre-infection for 96 hours, as below
The drug intake was calculated from the weight of the animals and the water consumption recorded over the period of the experiment.

Series [4] in a line: Solubility in water. The format is physicochemical. An excerpt:
As mentioned above, the compounds of formula (I) have the important advantage of having a greater solubility in water than acyclovir. Thus, the compounds of formula (I) wherein X is an oxygen atom and R is a hydroxy group or amino group have solubilities of 0.4 -.0.5% and 2 - 3% w/w respectively compared with a figure of 0.14% w/w for acyclovir.

adenosine deaminase, sequence (P00813 whole entry): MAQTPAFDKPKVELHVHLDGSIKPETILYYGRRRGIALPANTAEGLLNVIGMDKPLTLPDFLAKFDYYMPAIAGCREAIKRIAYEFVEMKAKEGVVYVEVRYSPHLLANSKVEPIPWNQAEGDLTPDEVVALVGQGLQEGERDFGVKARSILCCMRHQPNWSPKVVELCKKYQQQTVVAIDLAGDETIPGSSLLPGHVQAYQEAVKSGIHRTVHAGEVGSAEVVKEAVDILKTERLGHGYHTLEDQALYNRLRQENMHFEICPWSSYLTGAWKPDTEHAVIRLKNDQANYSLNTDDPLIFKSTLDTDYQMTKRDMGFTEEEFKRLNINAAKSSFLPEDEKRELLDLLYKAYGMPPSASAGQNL

For the compound `Nc1ncnc2c1ncn2COC(CO)CO`, in series [1], the “competitive inhibition of the enzyme” value was “weak competitive inhibitor” and the “substrate for the enzyme” value is on record as “poor substrate”.
On to `Nc1nc(N)c2ncn(COCCO)c2n1` [Example 134U, 2-amino-9-(2-hydroxy-methoxymethyl) adenine, reference compound], for which the “Mean reciprocal survival time” value in series [2] (Oral) is given as 0.222; in series [2] (i.p.), 0.231; in series [2] (s.c.) it was 0.226.
For `Nc1nc(N)c2ncn(COC(CO)CO)c2n1` [Example 457U, 9-[(2-hydroxy-1-hydroxymethylethoxy)methyl]-2,6-diaminopurine], the “deaths from virus-induced hepatitis” value in series [3] (in 15 treated hamsters, 14 deaths in 15 untreated controls) was determined as 1. Moreover, in series [3] (orally in drinking water, approximately 7 mg/kg/day), the “prevention of EHV-1 induced mortality” value is reported as “almost completely prevented”. In addition, the “Cumulative mortality (out of 15) on day” value in series [3] (day 2) is listed as 0; in series [3] (day 3), 1; in series [3] (day 4+), 1. The compound further had a solubility in series [4] of 20 to 30 mg/mL (≈ 78.7 to 118 mM). Also, the “Mean reciprocal survival time” value was found to be 0.155 in series [2] (Oral), 0.077 in series [2] (i.p.) and 0.102 in series [2] (s.c.). In addition, in series [2] (any of the three routes, difference highly significant), the “antiviral effect compared with acyclovir and 134U” value is recorded as “greatest antiviral effect”.
